# Results published in paper PMC10218941, “Design, Synthesis, Antiproliferative Actions, and DFT Studies of New Bis–Pyrazoline Derivatives as Dual EGFR/BRAF^V600E Inhibitors” (International Journal of Molecular Sciences, 2023).
# Several values for one entry are separate records, joined by “and”; a condition that tells them apart may be missing. Equal entries are not always repeated.
# Tests used:
# caspase-3 = assay: Caspase 3 activation assay; assay type: cell-based, human; conditions: MCF-7 cells; for Caspase–3 Fold Change: versus untreated control
# From the text: Compounds 12 and 17 were studied for their effects on caspase-3 levels in MCF-7 (breast cancer cell line) and staurosporine as a reference (503.00 ± 4 pg/mL). […] The aforementioned results imply that caspase-3 overexpression may be a contributing factor in the antiproliferative effects of the investigated compounds. […]
# 4.2.3. Caspase-3 activation assay
# Allow all reagents to reach room temperature before use. Gently mix all liquid reagents prior to use. Determine the number of 8-well strips needed for the assay. Insert these in the frame(s) for current use. Add 100 μl of the Standard Diluent Buffer to the zero standard wells. Well(s) reserved for chromogen blank should be left empty. Add 100 μl of standards and controls or diluted samples to the appropriate microtiter wells. The sample dilution chosen should be optimized for each experimental system. Tap gently on side of plate to mix. Cover wells with plate cover and incubate for 2 hours at room temperature. Thoroughly aspirate or decant solution from wells and discard the liquid, Wash wells 4 times. Pipette 100 μl of Caspase-3 (Active) Detection Antibody solution into each well except the chromogen blank(s). Tap gently on the side of the plate to mix. Cover plate with plate cover and incubate for 1 hour at room temperature. Thoroughly aspirate or decant solution from wells and discard the liquid, Wash wells 4 times. Add 100 μl Anti-Rabbit IgG HRP Working Solution to each well except the chromogen blank(s). Prepare the working dilution as described in Preparing IgG HRP. Cover wells with the plate cover and incubate for 30 minutes at room temperature. Thoroughly aspirate or decant solution from wells and discard the liquid. Wash wells 4 times. Add 100 μl of Stabilized Chromogen to each well. The liquid in the wells will begin to turn blue. Incubate for 30 minutes at room temperature and in the dark. The incubation time for chromogen substrate is often determined by the microtiter plate reader used. Many plate readers have the capacity to record a maximum optical density (O.D.) of 2.0. The O.D. values should be monitored, and the substrate reaction stopped before the O.D. of the positive wells exceeds the limits of the instrument. The O.D. values at 450 nm can only be read after the Stop Solution has been added to each well. If using a reader that records only to 2.0 O.D., stopping the assay after […]
# Add 100 μl of Stop Solution to each well. Tap side of plate gently to mix. The solution in the wells should change from blue to yellow. Read the absorbance of each well at 450 nm having blanked the plate reader against a chromogen blank composed of 100 μl each of Stabilized Chromogen and Stop Solution. Read the plate within 2 hours after adding the Stop Solution. Use a curve fitting software to generate the standard curve. A four-parameter algorithm provides the best standard curve fit. Read the concentrations for unknown samples and controls from the standard curve. Multiply value(s) obtained for sample(s) by the appropriate dilution factor to correct for the dilution in step 3. Samples producing signals greater than that of the highest standard should be diluted in Standard Diluent Buffer and reanalyzed. […]
# caspase-8 = assay: Caspase-8 level assay; assay type: cell-based, human; conditions: MCF-7 cells; for Caspase-8 Fold Change: versus untreated control
# Description: Additionally, the effects of compounds 12 and 17 on the levels of caspase-8, Bax, and Bacl-2 in the MCF-7 cancer cell line and staurosporine as a control were examined. […]
# The solution in the wells should change from blue to yellow. Read the absorbance of each well at 450 nm having blanked the plate reader against a chromogen blank composed of 100 μl each of Stabilized Chromogen and Stop Solution. Read the plate within 2 hours after adding the Stop Solution. Use a curve fitting software to generate the standard curve. A four-parameter algorithm provides the best standard curve fit. Read the concentrations for unknown samples and controls from the standard curve. Multiply value(s) obtained for sample(s) by the appropriate dilution factor to correct for the dilution in step 3. Samples producing signals greater than that of the highest standard should be diluted in Standard Diluent Buffer and reanalyzed.
# 4.2.4. Caspase-8 activation assay
# Cells were obtained from American Type Culture Collection, cells were grown in RPMI 1640 containing 10% fetal bovine serum at 37°C, stimulated with the compounds to be tested for caspase8, and lysed with Cell Extraction Buffer. This lysate was diluted in Standard Diluent Buffer over the range of the assay and measured for human active caspase-8 content. (Cells are Plated in a density of 1.2 – 1.8 × 10,000 cells/well in a volume of 100µl complete growth medium + 100 ul of the tested compound per well in a 96-well plate for 24 hours before the enzyme assay for Tubulin.). The absorbance of each microwell was read on a spectro-photometer at 450 nm. A standard curve is prepared from 7human Caspase-8 standard dilutions and human Caspase-8 concentration determined. […]
Structure (SMILES),Caspase–3 Conc (caspase-3),Caspase–3 Fold Change (caspase-3),Caspase-8 Conc (caspase-8) [ng/mL],Caspase-8 Fold Change (caspase-8)
"COc1ccc(C2CC(c3ccc(OCC(=O)Nc4ccc(C5=NNC(c6ccc(OC)c(OC)c6)C5)cc4)cc3)=NN2)cc1 (stereo not drawn) [Compound 12, 2-(4-(5-(4-Methoxyphenyl)-4,5-dihydro-1H-pyrazol-3-yl)phenoxy)-N-(4-(5-(3,4-dimethoxyphenyl)-4,5-dihydro-1H-pyrazol-3-yl)phenyl)acetamide]",543.50 ± 4 pg/mL,8.5,1.87,21
"CN[C@@H]1C[C@H]2O[C@@](C)([C@@H]1OC)n1c3ccccc3c3c4c(c5c6ccccc6n2c5c31)C(=O)NC4 [Staurosporine, reference compound]",503.00 ± 4 pg/mL,8.0,1.80,20
"COc1ccc(C2CC(c3ccc(NC(=O)COc4ccc(C5=NNC(c6ccc(OC)c(OC)c6)C5)cc4)cc3)=NN2)cc1 (stereo not drawn) [Compound 17, 2-(4-(5-(3,4-Dimethoxyphenyl)-4,5-dihydro-1H-pyrazol-3-yl)phenoxy)-N-(4-(5-(4-methoxyphenyl)-4,5-dihydro-1H-pyrazol-3-yl)phenyl)acetamide]",469.50 ± 5 pg/mL and 469.50 ± 4 pg/mL,7.2,1.77,20
